# PubChem BioAssay (NCI)
# Values joined by “and” are separate entries in the source; they are usually repeats but may differ in a detail not shown here. Equal values may be shown once.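 Where inhibition never reached the appropriate level, the endpoint shown equals the highest concentration tested. Otherwise, values were interpolated linearly from a five-concentration, 48-hour dose response in 96-well plates. Abbreviation: GI50, concentration required for 50% inhibition of growth. TGI marks complete inhibition of growth.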
# Experiments:
# Assay in all cases: growth of human tumour cells (NCI), 48 h
# PC-3 prostate = system: PC-3 prostate
# HOP-62 NSCLC = system: HOP-62 NSCLC
# MOLT-4 leukemia = system: MOLT-4 leukemia
# UO-31 renal = system: UO-31 renal
# EKVX NSCLC = system: EKVX NSCLC
# OVCAR-3 ovarian = system: OVCAR-3 ovarian
# MDA-MB-231 breast = system: MDA-MB-231 breast
# RPMI-8226 leukemia = system: RPMI-8226 leukemia
# NCI-H522 lung = system: NCI-H522 lung
# HCT-15 colon = system: HCT-15 colon
# SW-620 colon = system: SW-620 colon
# HT29 colon = system: HT29 colon
# UACC-62 melanoma = system: UACC-62 melanoma
# OVCAR-8 ovarian = system: OVCAR-8 ovarian
# U251 CNS = system: U251 CNS
# CCRF-CEM leukemia = system: CCRF-CEM leukemia
# SK-OV-3 ovarian = system: SK-OV-3 ovarian
# SR leukemia = system: SR leukemia
# OVCAR-5 ovarian = system: OVCAR-5 ovarian
# A549 NSCLC = system: A549 NSCLC
# T-47D breast = system: T-47D breast
# HL-60(TB) leukemia = system: HL-60(TB) leukemia
# K-562 leukemia = system: K-562 leukemia
# HCT-116 colon = system: HCT-116 colon
# MCF7 breast = system: MCF7 breast
# SK-MEL-5 melanoma = system: SK-MEL-5 melanoma
# OVCAR-4 ovarian = system: OVCAR-4 ovarian
# SK-MEL-28 melanoma = system: SK-MEL-28 melanoma
# SF-539 CNS = system: SF-539 CNS
# NCI-H460 lung = system: NCI-H460 lung
# A498 renal = system: A498 renal
# SF-268 CNS = system: SF-268 CNS
# M14 melanoma = system: M14 melanoma
# 786-0 renal = system: 786-0 renal
# HS 578T breast = system: HS 578T breast
# NCI/ADR-RES ovarian = system: NCI/ADR-RES ovarian
# ACHN renal = system: ACHN renal
# IGROV1 ovarian = system: IGROV1 ovarian
# NCI-H23 lung = system: NCI-H23 lung
# TK-10 renal = system: TK-10 renal
# SNB-19 CNS = system: SNB-19 CNS
# CAKI-1 renal = system: CAKI-1 renal
# KM12 colon = system: KM12 colon
# DU-145 prostate = system: DU-145 prostate
# SF-295 CNS = system: SF-295 CNS
# LOX IMVI melanoma = system: LOX IMVI melanoma
# UACC-257 melanoma = system: UACC-257 melanoma
# NCI-H226 lung = system: NCI-H226 lung
# SNB-75 CNS = system: SNB-75 CNS
# SN12C renal = system: SN12C renal
# MDA-MB-435 = system: MDA-MB-435
# SK-MEL-2 melanoma = system: SK-MEL-2 melanoma
# COLO 205 colon = system: COLO 205 colon
# RXF 393 renal = system: RXF 393 renal
# HOP-92 NSCLC = system: HOP-92 NSCLC
# HCC-2998 colon = system: HCC-2998 colon
# BT-549 breast = system: BT-549 breast
# MALME-3M melanoma = system: MALME-3M melanoma
smiles,measurement,setting,value
CC(=O)O[C@H]1C(=O)[C@@]2(C)[C@H]([C@H](OC(=O)c3ccccc3)[C@]3(O)C[C@H](OC(=O)[C@H](O)[C@@H](NC(=O)c4ccco4)c4ccccc4)C(C)=C1C3(C)C)[C@]1(OC(C)=O)CO[C@@H]1C[C@@H]2O,TGI,PC-3 prostate,> 12.5 µM
same,TGI,HOP-62 NSCLC,> 12.5 µM
same,TGI,MOLT-4 leukemia,> 12.5 µM
same,TGI,UO-31 renal,> 12.5 µM
same,TGI,EKVX NSCLC,> 12.5 µM
same,TGI,OVCAR-3 ovarian,0.00548 µM
same,TGI,MDA-MB-231 breast,> 12.5 µM
same,TGI,RPMI-8226 leukemia,< 0.00125 µM
same,TGI,NCI-H522 lung,> 12.5 µM
same,TGI,HCT-15 colon,> 12.5 µM
same,TGI,SW-620 colon,> 12.5 µM
same,TGI,HT29 colon,> 12.5 µM
same,TGI,UACC-62 melanoma,> 12.5 µM
same,TGI,OVCAR-8 ovarian,> 12.5 µM
same,TGI,U251 CNS,> 12.5 µM
same,TGI,CCRF-CEM leukemia,0.0073 µM
same,TGI,SK-OV-3 ovarian,0.0107 µM
same,TGI,SR leukemia,> 12.5 µM
same,TGI,OVCAR-5 ovarian,> 12.5 µM
same,TGI,A549 NSCLC,> 12.5 µM
same,TGI,T-47D breast,> 12.5 µM
same,TGI,HL-60(TB) leukemia,< 0.00125 µM
same,TGI,K-562 leukemia,< 0.00125 µM
same,TGI,HCT-116 colon,> 12.5 µM
same,TGI,MCF7 breast,> 12.5 µM
same,TGI,SK-MEL-5 melanoma,> 12.5 µM
same,TGI,OVCAR-4 ovarian,> 12.5 µM
same,TGI,SK-MEL-28 melanoma,> 12.5 µM
same,TGI,SF-539 CNS,0.00454 µM
same,TGI,NCI-H460 lung,> 12.5 µM
same,TGI,A498 renal,> 12.5 µM
same,TGI,SF-268 CNS,> 12.5 µM
same,TGI,M14 melanoma,> 12.5 µM
same,TGI,786-0 renal,> 12.5 µM
same,TGI,HS 578T breast,0.00279 µM
same,TGI,NCI/ADR-RES ovarian,> 7.75 µM
same,TGI,ACHN renal,> 12.5 µM
same,TGI,IGROV1 ovarian,> 12.5 µM
same,TGI,NCI-H23 lung,> 12.5 µM
same,TGI,TK-10 renal,> 12.5 µM
same,TGI,SNB-19 CNS,> 12.5 µM
same,TGI,CAKI-1 renal,> 12.5 µM
same,TGI,KM12 colon,> 12.5 µM
same,TGI,DU-145 prostate,> 12.5 µM
same,TGI,SF-295 CNS,> 12.5 µM
same,TGI,LOX IMVI melanoma,> 12.5 µM
COc1cc(C(=O)c2cnc(-c3cccc4[nH]ccc34)[nH]2)cc(OC)c1OC,GI50,PC-3 prostate,0.0457 µM and < 0.01 µM
same,TGI,PC-3 prostate,> 100 µM
same,GI50,HOP-62 NSCLC,< 0.01 µM
same,TGI,HOP-62 NSCLC,20 µM
same,GI50,UACC-257 melanoma,11.9 µM
same,TGI,UACC-257 melanoma,> 100 µM
same,TGI,MOLT-4 leukemia,> 100 µM
same,GI50,UO-31 renal,< 0.01 µM
same,TGI,UO-31 renal,21 µM
same,TGI,EKVX NSCLC,> 100 µM
same,GI50,OVCAR-3 ovarian,0.0366 µM and < 0.01 µM
same,TGI,MDA-MB-231 breast,20.7 µM
same,TGI,RPMI-8226 leukemia,24.3 µM
same,GI50,NCI-H522 lung,0.0369 µM
same,GI50,HCT-15 colon,0.0915 µM and < 0.01 µM
same,TGI,HCT-15 colon,> 100 µM
same,TGI,SW-620 colon,> 100 µM
same,GI50,HT29 colon,0.0493 µM and < 0.01 µM
same,TGI,HT29 colon,< 0.01 µM
same,GI50,UACC-62 melanoma,0.0509 µM and < 0.01 µM
same,TGI,UACC-62 melanoma,93.6 µM
same,TGI,OVCAR-8 ovarian,48.2 µM
same,GI50,NCI-H226 lung,0.169 µM
same,GI50,SNB-75 CNS,0.0295 µM and < 0.01 µM
same,TGI,SNB-75 CNS,> 100 µM
same,GI50,U251 CNS,0.0603 µM and < 0.01 µM
same,TGI,U251 CNS,40 µM
same,TGI,CCRF-CEM leukemia,> 100 µM
same,GI50,SK-OV-3 ovarian,0.0542 µM and < 0.01 µM
same,TGI,SK-OV-3 ovarian,< 0.01 µM
same,TGI,SN12C renal,> 100 µM
same,GI50,SR leukemia,< 0.01 µM
same,TGI,SR leukemia,> 100 µM
same,TGI,OVCAR-5 ovarian,> 100 µM
same,TGI,A549 NSCLC,> 100 µM
same,GI50,HL-60(TB) leukemia,< 0.01 µM
same,TGI,HL-60(TB) leukemia,< 0.01 µM
same,GI50,K-562 leukemia,0.0386 µM and < 0.01 µM
same,TGI,K-562 leukemia,42.3 µM
same,GI50,HCT-116 colon,0.0673 µM and < 0.01 µM
same,TGI,HCT-116 colon,> 100 µM
same,GI50,MCF7 breast,0.059 µM and < 0.01 µM
same,TGI,MCF7 breast,> 100 µM
same,GI50,SK-MEL-5 melanoma,0.0462 µM and < 0.01 µM
same,TGI,SK-MEL-5 melanoma,0.431 µM and 0.275 µM
same,GI50,OVCAR-4 ovarian,< 0.01 µM
same,TGI,OVCAR-4 ovarian,> 100 µM
same,GI50,SK-MEL-28 melanoma,< 0.01 µM
same,TGI,SK-MEL-28 melanoma,> 100 µM
same,GI50,SF-539 CNS,0.0278 µM and < 0.01 µM
same,GI50,NCI-H460 lung,0.0434 µM and < 0.01 µM
same,TGI,NCI-H460 lung,> 100 µM
same,GI50,MDA-MB-435,0.0282 µM
same,GI50,SK-MEL-2 melanoma,< 0.01 µM
same,TGI,SK-MEL-2 melanoma,36.1 µM
same,GI50,A498 renal,0.049 µM and < 0.01 µM
same,TGI,SF-268 CNS,> 100 µM
same,GI50,M14 melanoma,0.0505 µM and < 0.01 µM
same,TGI,COLO 205 colon,< 0.01 µM
same,TGI,786-0 renal,> 100 µM
same,TGI,HS 578T breast,> 100 µM
same,GI50,NCI/ADR-RES ovarian,0.0729 µM and < 0.01 µM
same,TGI,NCI/ADR-RES ovarian,> 100 µM
same,TGI,ACHN renal,33.8 µM
same,GI50,IGROV1 ovarian,0.0966 µM and < 0.01 µM
same,TGI,IGROV1 ovarian,> 100 µM
same,TGI,NCI-H23 lung,> 100 µM
same,GI50,RXF 393 renal,0.113 µM
same,GI50,TK-10 renal,< 0.01 µM
same,TGI,TK-10 renal,66.6 µM
same,GI50,SNB-19 CNS,0.0465 µM and < 0.01 µM
same,TGI,SNB-19 CNS,> 100 µM
same,GI50,CAKI-1 renal,< 0.01 µM
same,TGI,CAKI-1 renal,> 100 µM
same,GI50,HOP-92 NSCLC,1.5 µM
same,TGI,HOP-92 NSCLC,48.1 µM
same,TGI,HCC-2998 colon,59.3 µM
same,TGI,BT-549 breast,22 µM
same,GI50,KM12 colon,0.04 µM and < 0.01 µM
same,TGI,KM12 colon,24 µM
same,GI50,DU-145 prostate,0.0996 µM and < 0.01 µM
same,TGI,DU-145 prostate,> 100 µM
same,GI50,SF-295 CNS,< 0.01 µM
same,TGI,SF-295 CNS,> 100 µM
same,GI50,MALME-3M melanoma,19.6 µM
same,TGI,MALME-3M melanoma,83 µM
same,TGI,LOX IMVI melanoma,> 100 µM
Cc1ccc2c(=O)cc(-c3ccc(C)s3)[nH]c2n1,TGI,PC-3 prostate,> 44.9 µM
same,TGI,HOP-62 NSCLC,> 100 µM
same,TGI,UACC-257 melanoma,> 100 µM
same,TGI,MOLT-4 leukemia,> 100 µM
same,TGI,UO-31 renal,1.43 µM
same,TGI,EKVX NSCLC,> 100 µM
same,TGI,OVCAR-3 ovarian,> 46.8 µM
same,TGI,MDA-MB-231 breast,> 100 µM
same,TGI,RPMI-8226 leukemia,2.57 µM
same,TGI,HCT-15 colon,> 37.5 µM
same,TGI,UACC-62 melanoma,> 78.1 µM
same,TGI,OVCAR-8 ovarian,> 28.3 µM
same,TGI,NCI-H226 lung,2.45 µM
same,TGI,SNB-75 CNS,> 100 µM
same,TGI,U251 CNS,> 55.2 µM
same,TGI,SK-OV-3 ovarian,> 100 µM
same,TGI,SN12C renal,> 55.9 µM
same,TGI,SR leukemia,> 100 µM
same,TGI,OVCAR-5 ovarian,> 100 µM
same,TGI,A549 NSCLC,> 33.8 µM
same,TGI,T-47D breast,> 66.5 µM
same,TGI,HL-60(TB) leukemia,0.607 µM
same,TGI,K-562 leukemia,> 100 µM
same,TGI,HCT-116 colon,> 100 µM
same,TGI,MCF7 breast,> 100 µM
same,TGI,SK-MEL-5 melanoma,3.41 µM
same,TGI,OVCAR-4 ovarian,> 100 µM
same,TGI,SF-539 CNS,0.972 µM
same,TGI,NCI-H460 lung,> 100 µM
same,TGI,SK-MEL-2 melanoma,> 100 µM
same,TGI,A498 renal,> 70.9 µM
same,TGI,SF-268 CNS,> 74 µM
same,TGI,M14 melanoma,55.9 µM
same,TGI,COLO 205 colon,2.29 µM
same,TGI,786-0 renal,> 100 µM
same,TGI,NCI/ADR-RES ovarian,0.676 µM
same,TGI,ACHN renal,> 69 µM
same,TGI,IGROV1 ovarian,> 50.4 µM
same,TGI,TK-10 renal,> 100 µM
same,TGI,SNB-19 CNS,> 100 µM
same,TGI,CAKI-1 renal,> 100 µM
same,TGI,HOP-92 NSCLC,> 100 µM
same,TGI,HCC-2998 colon,9.82 µM
same,TGI,BT-549 breast,> 100 µM
same,TGI,KM12 colon,15.9 µM
same,TGI,DU-145 prostate,> 55.4 µM
same,TGI,SF-295 CNS,2.79 µM
same,TGI,MALME-3M melanoma,53 µM
same,TGI,LOX IMVI melanoma,> 42.9 µM
